Data published in patent publication US20220324835A1 (Nurix Therapeutics, Inc., priority 2018, published 2022).

How the values were obtained:
T-cell [1] = assay: IL-2 secretion from T-cells stimulated with anti-CD3 antibody alone (Biological Example 2); assay type: cell-based; details: primary human total T-cells, read-out: IL-2 secretion, Anti-CD3 stimulation, fold change over baseline; for fold induction at 1 µM: 1 μM compound; for fold induction at 8 µM: 8 μM compound
T-cell [2] = assay: CD25 cell surface staining on T-cells stimulated with anti-CD3 antibody alone (Biological Example 2); assay type: cell-based; details: primary human total T-cells, baseline = anti-CD3/anti-CD28 stimulated cells without inhibitor, read-out: CD25 staining, Anti-CD3 stimulation, fold change over baseline; for fold induction at 1 µM: 1 μM compound; for fold induction at 8 µM: 8 μM compound
Cbl-b [3] = biological target: T1, Cbl-b (Homo sapiens, UniProt Q13191); assay: Cbl-b activity assay (Cbl-b inhibition assay), TR-FRET of Cbl-b interaction with UbcH5B-Ub; assay type: biochemical; details: assay buffer with 100 mM NaCl, 60 nM Src kinase; read-out: Cbl-b activity IC50
Method in brief: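 Compound-treated Cbl-b was incubated 1.5 h with Src kinase (60 nM final; 30 nM for asterisked values, which also used 50 mM instead of 100 mM NaCl), 1 mM ATP and 5 mM MgCl2. Binding to fluorescent Ub-loaded UbcH5B (C85K mutant) was then read by TR-FRET after 1 h more.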

T-cell [4] = assay: IL-2 secretion from T-cells co-stimulated with anti-CD3 and anti-CD28 antibody (Biological Example 2); assay type: cell-based, human; details: Homo sapiens, T-cell, primary human total T-cells, baseline = anti-CD3/anti-CD28 stimulated cells without inhibitor, read-out: IL-2 secretion, Anti-CD3/Anti-CD28 stimulation, fold change over baseline; for fold induction at 0.3 µM: 0.3 μM compound; for fold induction at 1 µM: 1 μM compound; for fold induction at 4 µM: 4 μM compound
Method in brief: (§1)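 Values are fold-change over baseline: readings (IL-2 release, CD25 staining) from inhibitor-treated T-cells divided against untreated cells […]. No detailed procedure stated.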

Cbl-b [5] = biological target: T1, Cbl-b; assay: Cbl-b inhibition assay (Cbl-b activity assay, FRET, Biological Example 1; 100 mM NaCl, 60 nM Src kinase); assay type: biochemical; details: upper bound stated in text lists; read-out: IC50 values in the Cbl-b inhibition assay of Biological Example 1
Method in brief: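 Inhibition is read as loss of FRET signal. The signal arises when Src-phosphorylated, N-terminal biotinylated Avi-Cbl-b (captured by streptavidin-terbium) binds UbcH5B carrying covalently linked Bodipy-Fluorescein-tagged ubiquitin.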

T-cell [6] = assay: CD25 cell surface staining on T-cells co-stimulated with anti-CD3 and anti-CD28 antibody (Biological Example 2); assay type: cell-based, human; details: Homo sapiens, T-cell, primary human total T-cells, baseline = anti-CD3/anti-CD28 stimulated cells without inhibitor, read-out: CD25 staining, Anti-CD3/Anti-CD28 stimulation, fold change over baseline; for fold induction at 0.3 µM: 0.3 μM compound; for fold induction at 1 µM: 1 μM compound; for fold induction at 4 µM: 4 μM compound
Method in brief: as §1

T1 sequence (Q13191 36-427): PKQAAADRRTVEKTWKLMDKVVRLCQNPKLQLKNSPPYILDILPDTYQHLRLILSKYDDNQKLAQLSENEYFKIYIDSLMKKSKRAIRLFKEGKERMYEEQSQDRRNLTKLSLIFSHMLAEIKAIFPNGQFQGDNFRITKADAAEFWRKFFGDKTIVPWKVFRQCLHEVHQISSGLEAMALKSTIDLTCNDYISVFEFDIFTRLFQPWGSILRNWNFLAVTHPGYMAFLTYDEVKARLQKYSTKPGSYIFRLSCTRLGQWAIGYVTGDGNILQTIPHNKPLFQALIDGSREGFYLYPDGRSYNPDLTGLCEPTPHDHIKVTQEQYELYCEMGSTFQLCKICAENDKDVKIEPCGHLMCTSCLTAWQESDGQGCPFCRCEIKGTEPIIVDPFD

Structure (SMILES)	fold induction at 1 µM (T-cell [1])	fold induction at 1 µM (T-cell [2])	IC50 (Cbl-b [3]) [nM]	fold induction at 0.3 µM (T-cell [4])	fold induction at 1 µM (T-cell [4])	IC50 (Cbl-b [5]) [nM]	fold induction at 0.3 µM (T-cell [6])	fold induction at 1 µM (T-cell [6])	fold induction at 8 µM (T-cell [1])	fold induction at 8 µM (T-cell [2])	fold induction at 4 µM (T-cell [4])	fold induction at 4 µM (T-cell [6])
CN1CCN(c2cc3c(c(C(F)(F)F)c2)CN(c2cccc(C4(Cc5nncn5C)COC4)c2)C3=O)C(=O)C1 [Compound 391, 6-(4-Methyl-2-oxopiperazin-1-yl)-2-(3-(3-((4-methyl-4H-1,2,4-triazol-3-yl)methyl)oxetan-3-yl)phenyl)-4-(trifluoromethyl)isoindolin-1-one]	0.051 to 0.1	0.801 to 1	< 100	1.01 to 2.5	1.01 to 2.5	≤ 100	1.01 to 1.3	1.01 to 1.3				
C[C@H]1C=CCN1Cc1cc2c(c(C(F)(F)F)c1)CN(c1cccc(C3(Cc4nncn4C)COC3)c1)C2=O [Compound 427]	> 0.201	> 1	< 100	> 7.5	> 7.5	≤ 100	1.31 to 1.5	1.51 to 1.75	> 0.201	> 1	> 7.5	1.51 to 1.75
Cn1cnnc1CC1(c2cccc(NC(=O)c3cc(CN4C[C@@H]5[C@H](C4)C5(F)F)cc(C4CC4)n3)c2)COC1 [Compound 499]	> 0.201	> 1	< 100	> 7.5	> 7.5	≤ 100	1.31 to 1.5	1.31 to 1.5				
C[C@@H](c1cc2c(c(C(F)(F)F)c1)CN(c1cccc([C@@](C)(F)C(F)(F)c3nncn3C)c1)C2=O)N1CC[C@H](F)C1 [Compound 460, 6-((S)-1-((S)-3-fluoropyrrolidin-1-yl)ethyl)-2-(3-((R)-1,1,2-trifluoro-1-(4-methyl-4H-1,2,4-triazol-3-yl)propan-2-yl)phenyl)-4-(trifluoromethyl)isoindolin-1-one]	> 0.201	> 1	< 100	> 7.5	> 7.5	≤ 100	1.31 to 1.5	1.51 to 1.75	> 0.201	> 1	> 7.5	1.51 to 1.75
Cn1cnnc1CC1(c2cccc(N3Cc4c(cc(C(F)(F)CO)cc4C(F)(F)F)C3=O)c2)COC1 [Example 547, 6-(1,1-difluoro-2-hydroxyethyl)-2-(3-(3-((4-methyl-4H-1,2,4-triazol-3-yl)methyl)oxetan-3-yl)phenyl)-4-(trifluoromethyl)isoindolin-1-one]	0.101 to 0.15	0.801 to 1	< 100	1.01 to 2.5	1.01 to 2.5	≤ 100	1.01 to 1.3	1.01 to 1.3				
C[C@H](Cc1nncn1C)c1cccc(N2Cc3c(cc([C@H](C)N4CC(O)C4)cc3C(F)(F)F)C2=O)c1 [Compound 406, 6-((S)-1-(3-hydroxyazetidin-1-yl)ethyl)-2-(3-((R)-1-(4-methyl-4H-1,2,4-triazol-3-yl)propan-2-yl)phenyl)-4-(trifluoromethyl)isoindolin-1-one]	> 0.201	> 1	< 100	5 to 7.5	> 7.5	≤ 100	1.01 to 1.3	1.31 to 1.5	> 0.201	> 1	> 7.5	1.31 to 1.5
CC[C@H](c1cc2c(c(C(F)(F)F)c1)CN(c1cccc(C3(Cc4nncn4C)COC3)c1)C2=O)N1CC[C@H](F)C1 [Example 546, 6-((R)-1-((S)-3-fluoropyrrolidin-1-yl)propyl)-2-(3-(3-((4-methyl-4H-1,2,4-triazol-3-yl)methyl)oxetan-3-yl)phenyl)-4-(trifluoromethyl)isoindolin-1-one]	> 0.201	> 1	< 100	> 7.5	> 7.5	≤ 100	1.51 to 1.75	1.51 to 1.75				
Cc1conc1CC1(c2cccc(NC(=O)c3cc(CN4CCC5(CC5)C4)nc(C4CC4)n3)c2)COC1 [Compound 508, 6-{5-azaspiro[2.4]heptan-5-ylmethyl}-2-cyclopropyl-N-(3-{3-[(4-methyl-1,2-oxazol-3-yl)methyl]oxetan-3-yl}phenyl)pyrimidine-4-carboxamide]	> 0.201	> 1	< 100	> 7.5	> 7.5	≤ 100	1.31 to 1.5	1.31 to 1.5				
Cn1cnnc1C(F)(F)[C@](C)(F)c1cccc(N2Cc3c(cc(CN4CC(C(F)F)C4)cc3C(F)(F)F)C2=O)c1 [Compound 453, (R)-6-((3-(difluoromethyl)azetidin-1-yl)methyl)-2-(3-(1,1,2-trifluoro-1-(4-methyl-4H-1,2,4-triazol-3-yl)propan-2-yl)phenyl)-4-(trifluoromethyl)isoindolin-1-one]	> 0.201	> 1	< 100	5 to 7.5	> 7.5	≤ 100	1.31 to 1.5	1.31 to 1.5	0.151 to 0.2	> 1	> 7.5	1.31 to 1.5
C[C@@H](c1cc2c(c(C(F)(F)F)c1)CN(c1cccc(C3(Cc4nncn4C)COC3)c1)C2=O)N1CC(C)(F)C1 [Compound 543a, (S)-6-(1-(3-fluoro-3-methylazetidin-1-yl)ethyl)-2-(3-(3-((4-methyl-4H-1,2,4-triazol-3-yl)methyl)oxetan-3-yl)phenyl)-4-(trifluoromethyl)isoindolin-1-one]	> 0.201	> 1	< 100	2.51 to 5	> 7.5	≤ 100	1.31 to 1.5	1.51 to 1.75				
C[C@H](c1cc2c(c(C(F)(F)F)c1)CN(c1cccc(C3([C@H](F)c4nncn4C)COC3)c1)C2=O)N1CCC2(CC2)C1 (single isomer, unassigned) [Compound 516]	> 0.201	> 1	< 100	> 7.5	> 7.5	≤ 100	> 1.76	> 1.76				
Cn1cnnc1CC1(c2cccc(N3Cc4c(cc(CN5CCCC56COC6)cc4C(F)(F)F)C3=O)c2)COC1 [Compound 433, 2-(3-{3-[(4-methyl-4H-1,2,4-triazol-3-yl)methyl]oxetan-3-yl}phenyl)-6-({2-oxa-5-azaspiro[3,4]octan-5-yl}methyl)-4-(trifluoromethyl)-2,3-dihydro-1H-isoindol-1-one]	0.151 to 0.2	0.801 to 1	< 100	1.01 to 2.5	5 to 7.5	≤ 100	1.01 to 1.3	1.31 to 1.5				
Cn1cnnc1CC1(c2cccc(N3Cc4c(cc(C(F)(F)C(=O)O)cc4C(F)(F)F)C3=O)c2)COC1 [Example 544, 2,2-difluoro-2-(2-(3-(3-((4-methyl-4H-1,2,4-triazol-3-yl)methyl)oxetan-3-yl)phenyl)-3-oxo-7-(trifluoromethyl)isoindolin-5-yl)acetic acid]	< 0.05	0.601 to 0.8	301 to 1000	1.01 to 2.5	1.01 to 2.5	≤ 1000	1.01 to 1.3	1.01 to 1.3				
